Measurements as given in the NIST ThermoML archive (doi:10.1021/je049572f).

Assay: xn = mol fraction of the nth substance listed
Details: 101.33 kPa, Liquid

C=Cc1ccccc1 [styrene] + CCCCCCCC
Details	mass density [kg/m3]	viscosity [mPa·s]
293.15 K, x1 = 0.1085	719.52	0.537
293.15 K, x1 = 0.2151	736.18	0.537
293.15 K, x1 = 0.3202	753.7	0.541
293.15 K, x1 = 0.4223	772.01	0.551
293.15 K, x1 = 0.523	791.51	0.565
293.15 K, x1 = 0.622	812.07	0.593
293.15 K, x1 = 0.7189	833.64	0.619
293.15 K, x1 = 0.8145	856.59	0.649
293.15 K, x1 = 0.9081	880.84	0.694
293.15 K, x1 = 1	906.29	0.749
298.15 K, x1 = 0.1085	715.45	0.502
298.15 K, x1 = 0.2151	732.06	0.508
298.15 K, x1 = 0.3202	749.53	0.51
298.15 K, x1 = 0.4223	767.81	0.518
298.15 K, x1 = 0.523	787.27	0.533
298.15 K, x1 = 0.622	807.78	0.56
298.15 K, x1 = 0.7189	829.3	0.576
298.15 K, x1 = 0.8145	852.22	0.608
298.15 K, x1 = 0.9081	876.43	0.647
298.15 K, x1 = 1	901.86	0.699
303.15 K, x1 = 0.1085	711.38	0.475
303.15 K, x1 = 0.2151	727.94	0.477
303.15 K, x1 = 0.3202	745.38	0.48
303.15 K, x1 = 0.4223	763.63	0.489
303.15 K, x1 = 0.523	783.03	0.503
303.15 K, x1 = 0.622	803.5	0.527
303.15 K, x1 = 0.7189	824.98	0.544
303.15 K, x1 = 0.8145	847.87	0.571
303.15 K, x1 = 0.9081	872.03	0.609
303.15 K, x1 = 1	897.45	0.654
313.15 K, x1 = 0.1085	703.13	0.423
313.15 K, x1 = 0.2151	719.6	0.427
313.15 K, x1 = 0.3202	737	0.431
313.15 K, x1 = 0.4223	755.16	0.439
313.15 K, x1 = 0.523	774.46	0.451
313.15 K, x1 = 0.622	794.86	0.48
313.15 K, x1 = 0.7189	816.28	0.486
313.15 K, x1 = 0.8145	839.09	0.511
313.15 K, x1 = 0.9081	863.15	0.541
313.15 K, x1 = 1	888.53	0.577
323.15 K, x1 = 0.1085	694.84	0.381
323.15 K, x1 = 0.2151	711.23	0.385
323.15 K, x1 = 0.3202	728.58	0.388
323.15 K, x1 = 0.4223	746.66	0.396
323.15 K, x1 = 0.523	765.88	0.406
323.15 K, x1 = 0.622	786.22	0.427
323.15 K, x1 = 0.7189	807.56	0.437
323.15 K, x1 = 0.8145	830.31	0.46
323.15 K, x1 = 0.9081	854.31	0.484
323.15 K, x1 = 1	879.62	0.513
333.15 K, x1 = 0.1085	686.43	0.351
333.15 K, x1 = 0.2151	702.74	0.351
333.15 K, x1 = 0.3202	720.06	0.352
333.15 K, x1 = 0.4223	738.07	0.359
333.15 K, x1 = 0.523	757.21	0.368
333.15 K, x1 = 0.622	777.49	0.387
333.15 K, x1 = 0.7189	798.77	0.395
333.15 K, x1 = 0.8145	821.46	0.413
333.15 K, x1 = 0.9081	845.37	0.438
333.15 K, x1 = 1	870.64	0.462
343.15 K, x1 = 0.1085	677.99	0.321
343.15 K, x1 = 0.2151	694.24	0.325
343.15 K, x1 = 0.3202	711.51	0.322
343.15 K, x1 = 0.4223	729.46	0.328
343.15 K, x1 = 0.523	748.55	0.337
343.15 K, x1 = 0.622	768.75	0.355
343.15 K, x1 = 0.7189	789.97	0.362
343.15 K, x1 = 0.8145	812.63	0.376
343.15 K, x1 = 0.9081	836.5	0.398
343.15 K, x1 = 1	861.72	0.419
353.15 K, x1 = 0.1085	669.39	0.293
353.15 K, x1 = 0.2151	685.6	0.295
353.15 K, x1 = 0.3202	702.81	0.295
353.15 K, x1 = 0.4223	720.71	0.301
353.15 K, x1 = 0.523	739.76	0.308
353.15 K, x1 = 0.622	759.93	0.322
353.15 K, x1 = 0.7189	781.11	0.333
353.15 K, x1 = 0.8145	803.68	0.349
353.15 K, x1 = 0.9081	827.51	0.362
353.15 K, x1 = 1	852.68	0.381
363.15 K, x1 = 0.1085	660.98	0.27
363.15 K, x1 = 0.2151	677.15	0.268
363.15 K, x1 = 0.3202	694.32	0.273
363.15 K, x1 = 0.4223	712.19	0.277
363.15 K, x1 = 0.523	731.2	0.285
363.15 K, x1 = 0.622	751.34	0.294
363.15 K, x1 = 0.7189	772.48	0.304
363.15 K, x1 = 0.8145	795.04	0.318
363.15 K, x1 = 0.9081	818.82	0.333
363.15 K, x1 = 1	843.99	0.349

O=S1(=O)CCCC1 [sulfolane] + CCc1ccccc1
Details	mass density [kg/m3]	viscosity [mPa·s]
303.15 K, x2 = 0	1260.8	10.07
303.15 K, x2 = 0.1118	1209.27	6.224
303.15 K, x2 = 0.2205	1160.4	4.155
303.15 K, x2 = 0.3267	1114.66	2.942
303.15 K, x2 = 0.4301	1071.65	2.185
303.15 K, x2 = 0.5309	1031.19	–
303.15 K, x2 = 0.6293	993.33	1.324
303.15 K, x2 = 0.7254	957.17	1.057
303.15 K, x2 = 0.8194	923.09	0.861
303.15 K, x2 = 0.9106	890.45	0.716
313.15 K, x2 = 0	1251.9	7.808
313.15 K, x2 = 0.1118	1200.44	4.943
313.15 K, x2 = 0.2205	1151.53	3.385
313.15 K, x2 = 0.3267	1105.77	2.452
313.15 K, x2 = 0.4301	1062.77	1.835
313.15 K, x2 = 0.5309	1022.32	–
313.15 K, x2 = 0.6293	984.45	1.135
313.15 K, x2 = 0.7254	948.31	0.924
313.15 K, x2 = 0.8194	914.23	0.757
313.15 K, x2 = 0.9106	881.6	0.632
323.15 K, x2 = 0	1243.36	6.194
323.15 K, x2 = 0.1118	1191.64	4.007
323.15 K, x2 = 0.2205	1142.7	2.801
323.15 K, x2 = 0.3267	1096.92	2.048
323.15 K, x2 = 0.4301	1053.9	1.561
323.15 K, x2 = 0.5309	1013.47	1.136
323.15 K, x2 = 0.6293	975.58	0.993
323.15 K, x2 = 0.7254	939.43	0.813
323.15 K, x2 = 0.8194	905.36	0.66
323.15 K, x2 = 0.9106	872.72	0.564
333.15 K, x2 = 0	1234.62	5.009
333.15 K, x2 = 0.1118	1182.85	3.33
333.15 K, x2 = 0.2205	1133.86	2.35
333.15 K, x2 = 0.3267	1088.06	1.763
333.15 K, x2 = 0.4301	1045.02	1.347
333.15 K, x2 = 0.5309	1004.57	–
333.15 K, x2 = 0.6293	966.66	0.876
333.15 K, x2 = 0.7254	930.5	0.724
333.15 K, x2 = 0.8194	896.41	0.597
333.15 K, x2 = 0.9106	863.76	0.505
343.15 K, x2 = 0	1225.92	4.126
343.15 K, x2 = 0.1118	1173.93	2.796
343.15 K, x2 = 0.2205	1124.89	2.005
343.15 K, x2 = 0.3267	1079.06	1.541
343.15 K, x2 = 0.4301	1036.02	1.177
343.15 K, x2 = 0.5309	995.54	0.882
343.15 K, x2 = 0.6293	957.62	0.772
343.15 K, x2 = 0.7254	921.43	0.646
343.15 K, x2 = 0.8194	887.32	0.536
343.15 K, x2 = 0.9106	854.67	0.459
353.15 K, x2 = 0	1216.8	3.44
353.15 K, x2 = 0.1118	1165.14	2.371
353.15 K, x2 = 0.2205	1116.08	1.736
353.15 K, x2 = 0.3267	1070.18	1.319
353.15 K, x2 = 0.4301	1027.1	1.039
353.15 K, x2 = 0.5309	986.58	0.785
353.15 K, x2 = 0.6293	948.63	0.692
353.15 K, x2 = 0.7254	912.4	0.583
353.15 K, x2 = 0.8194	878.28	0.484
353.15 K, x2 = 0.9106	845.58	0.417
